Assay results reported in patent publication US20170014432A1, “COMPOSITIONS AND METHODS FOR REDUCING CHRONIC LOW-LEVEL INFLAMMATION” (priority 2014, published 2017).

Tested on: delta-5-desaturase
Assay: Two-week feeding study, AA/DGLA ratio in plasma
Format: in vivo, mice
Conditions: for Average % decrease in AA/DGLA Ratio in Plasma: mice, 36.7 mg/day sesamol palmitate in safflower oil by gavage, low-fat diet
Description: To determine the ability of a sesamol derivative of the present invention to inhibit the formation of arachidonic acid, a two-week feeding study was done with two groups of mice with 8 mice in each group. We mixed 4.4 g of sesamol palmitate into 60 ml of safflower oil. This provided a concentration of sesamol palmitate of 73.3 mg/ml. The mice in the sesamol group received 500 μl each day (36.7 mg) via gavage of the sesamol palmitate compound in safflower oil whereas the control group received 500 μl of the safflower oil control. Both groups were maintained on a low-fat diet. 200 μl of blood was drawn at three time points (0, 1, and 2 weeks) for analysis of the fatty acid composition in the plasma.
Since the sesamol derivative, sesamol palmitate, inhibits the enzyme delta-5-desaturase that converts dihomo gamma linolenic acid (DGLA) to arachidonic acid (AA), we choose to look at the decrease in the AA/DGLA ratio as an indication of efficacy of sesamol palmitate in inhibiting the key enzyme. The percent difference between the AA/DGLA ratio in each […] was determined at the starting point and at days 7 and 14. The percent differences in the AA/DGLA per each rat in the active and placebo groups were then averaged.

CCCCCCCCCCCCCCCC(=O)Oc1ccc2c(c1)OCO2 [Sesamol Palmitate]
Average % decrease in AA/DGLA Ratio in Plasma (Days 0-7): −25.4%
Average % decrease in AA/DGLA Ratio in Plasma (Days 0-14): −23.4%
Average decrease in the AA/DGLA ratio relative to placebo group (active group versus placebo group): approximately double
